Reference: patent US8962637B2, “Bicyclic compounds and their uses as dual c-SRC/JAK inhibitors” (Debiopharm S.A., priority 2010, dated 2015)

Experiments:
A431 tumor cells = experiment: A431 xenograft model; format: in vivo, athymic nude mice; conditions: A431 Xenograft model, 100 MPK
Protocol: SC injection of 5×10^6 A431 tumor cells with Matrigel® on the left flank of 24 female athymic nude mice. Randomization of mice 14 days after tumor cell injection into 3 groups of 8 mice each with a mean tumor volume of 90±1 mm3.
(§1) Formulation: 20% HPC, 2% ethanol solution in PBS for the compound No. 45
• Normal saline for Gefitinib® Dosing route: Oral for the compound No. 45 and Gefitinib® Dose Volume: 10 mL/Kg body weight Dosing schedule: Once daily for 14 consecutive days (Q1Dx14) PK-PD experiment in A431 model: Tumors were allowed to grow to 250 mm^3 size. Compounds were dosed once and PBMCs and tumors were collected at Tmax for pStat3 estimation. Plasma was also collected to estimate drug concentration estimation. Efficacy experiment in A431 model: Dosage: • Group1. Vehicle control • Group2. Compound No. 45—150 MPK • Group3. […] Plasma collected for drug concentration estimation and whole blood was collected to isolate PBMCs to determine pStat3 inhibition by flow cytometry as PD readout. Tumors were snap frozen in liquid nitrogen and stored at −80° C. to estimate pStat3 by flow cytometry as PD readout Determination of Plasma Drug Concentration: […]

pStat3 = experiment: Quantification of pStat3 in PBMCs by flow cytometry; format: in vivo, mice; conditions: B16F10 model, 5 MPK
Protocol: Phosphorylation of Stat3 was stimulated by addition of hIL6 (10 ug/mL) for 30 min at 37° C. Blood was fixed with formaldehyde (final 2% v/v) for 10 min at 37° C.
Buffy coat (PBMCs) was separated by aspirating translucent layer using pipetteman and washed twice with PBS-1×
Pre chilled PBMC's were permeabilized by adding ice cold Methanol, while vortexing gently (final volume 90% MeOH v/v) and incubated for 30 min on ice.
Permeabilized PBMCs were washed with PBS once. PBMCs re-suspended to 2×10^6 cells in 200 μL of incubation buffer for 10 min at room temperature (RT). Primary Ab was added (1:100 dilution) and incubated 45 min at RT. Washed as before (twice) and re-suspended in fluorochrome conjugated secondary Ab (1:500 dilution) and incubated at RT in dark for 30 min. Washed and re-suspended in […] PBS.
Measured pStat3 using FACS caliber machine (BD). Unstained PBMCs was used for cytometry settings. […] Histograms (cell number V/s FL1-H) were plotted. Percentage of cells that are phosphorylated by IL6 stimulation (M2 population), and inhibition of phosphorylation by inhibitor (decrease in M2 population) are calculated on histogram by marking peaks, M1 and M2.

B16F10 tumor cells = experiment: B16F10 metastasis model; format: in vivo, C57B16 mice; conditions: B16F10 model, 5 MPK
Protocol: IV injection of 0.1×10^6 B16F10 tumor cells in the tail vain of 60 male C57B16 mice. Randomization of mice one day after tumor cell injection into 4 groups of 15 mice. Out of 15, 6 mice were sacrificed on 14th day for counting metastatic foci on lungs. Rest 9 mice were dosed continuously till morbidity/mortality for recording survival.
as §1
Plasma collected for drug concentration estimation and whole blood was collected to isolate PBMCs to determine pStat3 inhibition by flow cytometry as PD readout.

Row | Compound | % TGI (A431 tumor cells) [%] | PBMCs % pStat3 inhibition (pStat3) [%] | Metastasis Inhibition (B16F10 tumor cells) [%]
1 | COc1cc2ncnc(Nc3ccc(F)c(Cl)c3)c2cc1OCCCN1CCOCC1 [Gefitinib, reference compound] | 94.25 |  | 
2 | CC(=O)O[C@H]1C(=O)[C@@]2(C)[C@H]([C@H](OC(=O)c3ccccc3)[C@]3(O)C[C@H](OC(=O)[C@H](O)[C@@H](NC(=O)c4ccccc4)c4ccccc4)C(C)=C1C3(C)C)[C@]1(OC(C)=O)CO[C@@H]1C[C@@H]2O [Taxol, paclitaxel, reference compound] |  | 25 | 32
